Values after ≈ are worked out from the molar mass of the structure shown. Values joined by “and” are separate entries in the source; they are usually repeats but may differ in a detail not shown here. Identical values can stand only once. Like-named read-outs stand apart in the source and are kept apart here.
Assays:
[1] = test system: Fluconazole resistant C. albicans and C. glabrata; assay: MIC against fluconazole resistant isolates; assay type: cell-based
Experimental: (§1) Minimum inhibitory concentration (MIC) susceptibility testing was performed according to the CLSI M27-A3 and M38-A2 standards for the susceptibility testing of yeasts and filamentous fungi, respectively. Incubation temperature was at 35° C. and the inoculum size was 0.5-2.5×10^3 colony-forming units (CFU)/mL and 0.4-5×10^4 conidia/mL for yeasts and filamentous fungi, respectively. Inoculum concentration for dermatophytes was 1-3×10^3 conidia/mL. RPMI was used throughout as the growth medium and Cryptococcus strains were tested in YNB. […] Voriconazole MICs were recorded at 80% inhibition after 96 hours of incubation for dermatophytes. S. cerevisiae deletion mutants were obtained from the commercially available BY4741 deletion library (Thermo Scientific). Susceptibility testing was carried out on inoculum size of 0.5-1×10^4 cells/ml in YPD media at 30° C. and MICs recorded after 48 and 60 hours.

Candida krusei 9541 = assay: MIC susceptibility testing (CLSI M27-A3); assay type: cell-based; conditions: Pichia kudriavzevii, 9541, 24 h, read-out: Fluconazole MIC
Experimental: as §1

[2] = test system: Candida parapsilosis 28174; assay: MIC susceptibility testing (CLSI M27-A3); assay type: cell-based; conditions: Lodderomyces parapsilosis, 28174, 24 h, read-out: Fluconazole MIC
Experimental: as §1

[3] = test system: Cryptococcus neoformans 28446; assay: MIC susceptibility testing (CLSI M27-A3); assay type: cell-based; conditions: Cryptococcus neoformans, 28446, 72 h, read-out: Fluconazole MIC
Experimental: as §1

Candida glabrata 27243 = assay: MIC susceptibility testing (CLSI M27-A3); assay type: cell-based; conditions: Nakaseomyces glabratus, 27243, 24 h, read-out: Fluconazole MIC
Experimental: as §1

Candida tropicalis 9624 = assay: MIC susceptibility testing (CLSI M27-A3); assay type: cell-based; conditions: Candida tropicalis, 9624, 24 h, read-out: Fluconazole MIC
Experimental: as §1

[4] = test system: Candida parapsilosis 28364; assay: MIC susceptibility testing (CLSI M27-A3); assay type: cell-based; conditions: Lodderomyces parapsilosis, 28364, 24 h, read-out: Fluconazole MIC
Experimental: as §1

Candida glabrata 28271 = assay: MIC susceptibility testing (CLSI M27-A3); assay type: cell-based; conditions: Nakaseomyces glabratus, 28271, 24 h, read-out: Fluconazole MIC
Experimental: as §1

[5] = test system: Cryptococcus neoformans 19526; assay: MIC susceptibility testing (CLSI M27-A3); assay type: cell-based; conditions: Cryptococcus neoformans, 19526, 72 h, read-out: Fluconazole MIC
Experimental: as §1

[6] = test system: Candida parapsilosis 2006; assay: MIC susceptibility testing (CLSI M27-A3); assay type: cell-based; conditions: Lodderomyces parapsilosis, 2006, 24 h, read-out: Fluconazole MIC
Experimental: as §1

[7] = test system: Cryptococcus neoformans 27708; assay: MIC susceptibility testing (CLSI M27-A3); assay type: cell-based; conditions: Cryptococcus neoformans, 27708, 72 h, read-out: Fluconazole MIC
Experimental: as §1

Candida albicans 28102 = assay: MIC susceptibility testing (CLSI M27-A3); assay type: cell-based; conditions: Candida albicans, 28102, 24 h, read-out: Fluconazole MIC
Experimental: as §1

Candida glabrata 25742 = assay: MIC susceptibility testing (CLSI M27-A3); assay type: cell-based; conditions: Nakaseomyces glabratus, 25742, 24 h, read-out: Fluconazole MIC
Experimental: as §1

Candida krusei 28415 = assay: MIC susceptibility testing (CLSI M27-A3); assay type: cell-based; conditions: Pichia kudriavzevii, 28415, 24 h, read-out: Fluconazole MIC
Experimental: as §1

Candida tropicalis 28478 = assay: MIC susceptibility testing (CLSI M27-A3); assay type: cell-based; conditions: Candida tropicalis, 28478, 24 h, read-out: Fluconazole MIC
Experimental: as §1

Candida tropicalis 28272 = assay: MIC susceptibility testing (CLSI M27-A3); assay type: cell-based; conditions: Candida tropicalis, 28272, 24 h, read-out: Fluconazole MIC
Experimental: as §1

Candida albicans 23512 = assay: MIC susceptibility testing (CLSI M27-A3); assay type: cell-based; conditions: Candida albicans, 23512, 24 h, read-out: Fluconazole MIC
Experimental: as §1

Candida krusei 28570 = assay: MIC susceptibility testing (CLSI M27-A3); assay type: cell-based; conditions: Pichia kudriavzevii, 28570, 24 h, read-out: Fluconazole MIC
Experimental: as §1

Candida albicans 28200 = assay: MIC susceptibility testing (CLSI M27-A3); assay type: cell-based; conditions: Candida albicans, 28200, 24 h, read-out: Fluconazole MIC
Experimental: as §1

[8] = test system: Trichophyton rubrum 28658; assay: MIC susceptibility testing (CLSI M38-A2); assay type: cell-based
Experimental: as §1

[9] = test system: Trichophyton mentagrophytes 10207; assay: MIC susceptibility testing (CLSI M38-A2); assay type: cell-based
Experimental: as §1

[10] = test system: Trichophyton rubrum 28659; assay: MIC susceptibility testing (CLSI M38-A2); assay type: cell-based
Experimental: as §1

[11] = test system: Trichophyton mentagrophytes 28556; assay: MIC susceptibility testing (CLSI M38-A2); assay type: cell-based
Experimental: as §1

[12] = test system: Trichophyton mentagrophytes 28641; assay: MIC susceptibility testing (CLSI M38-A2); assay type: cell-based
Experimental: as §1

[13] = test system: Trichophyton rubrum 11199; assay: MIC susceptibility testing (CLSI M38-A2); assay type: cell-based
Experimental: as §1

Aspergillus flavus 28517 = assay: MIC susceptibility testing (CLSI M38-A2); assay type: cell-based; conditions: Aspergillus flavus, 28517, 48 h, read-out: Voriconazole MIC
Experimental: as §1

[14] = test system: Rhizopus microsporus 28506; assay: MIC susceptibility testing (CLSI M38-A2); assay type: cell-based; conditions: Rhizopus microsporus, 28506, 24 h, read-out: Voriconazole MIC
Experimental: as §1

[15] = test system: Aspergillus fumigatus 28436; assay: MIC susceptibility testing (CLSI M38-A2); assay type: cell-based; conditions: Aspergillus fumigatus, 28436, 48 h, read-out: Voriconazole MIC
Experimental: as §1

Mucor racemosus 27784 = assay: MIC susceptibility testing (CLSI M38-A2); assay type: cell-based; conditions: Mucor racemosus, 27784, 24 h, read-out: Voriconazole MIC
Experimental: as §1

Aspergillus flavus 28455 = assay: MIC susceptibility testing (CLSI M38-A2); assay type: cell-based; conditions: Aspergillus flavus, 28455, 48 h, read-out: Voriconazole MIC
Experimental: as §1

Rhizopus oryzae 28403 = assay: MIC susceptibility testing (CLSI M38-A2); assay type: cell-based; conditions: Rhizopus arrhizus, 28403, 24 h, read-out: Voriconazole MIC
Experimental: as §1

[16] = test system: Mucor circinelloides 19445; assay: MIC susceptibility testing (CLSI M38-A2); assay type: cell-based; conditions: Mucor circinelloides, 19445, 24 h, read-out: Voriconazole MIC
Experimental: as §1

Fusarium solani 28386 = assay: MIC susceptibility testing (CLSI M38-A2); assay type: cell-based; conditions: Fusarium solani, 28386, 48 h, read-out: Voriconazole MIC
Experimental: as §1

[17] = test system: Aspergillus fumigatus 28435; assay: MIC susceptibility testing (CLSI M38-A2); assay type: cell-based; conditions: Aspergillus fumigatus, 28435, 48 h, read-out: Voriconazole MIC
Experimental: as §1

[18] = test system: Aspergillus fumigatus 28434; assay: MIC susceptibility testing (CLSI M38-A2); assay type: cell-based; conditions: Aspergillus fumigatus, 28434, 48 h, read-out: Voriconazole MIC
Experimental: as §1

[19] = test system: Rhizopus microsporus 27785; assay: MIC susceptibility testing (CLSI M38-A2); assay type: cell-based; conditions: Rhizopus microsporus, 27785, 24 h, read-out: Voriconazole MIC
Experimental: as §1

Fusarium solani 18749 = assay: MIC susceptibility testing (CLSI M38-A2); assay type: cell-based; conditions: Fusarium solani, 18749, 48 h, read-out: Voriconazole MIC
Experimental: as §1

Aspergillus flavus 28445 = assay: MIC susceptibility testing (CLSI M38-A2); assay type: cell-based; conditions: Aspergillus flavus, 28445, 48 h, read-out: Voriconazole MIC
Experimental: as §1

Mucor fragdis 27782 = assay: MIC susceptibility testing (CLSI M38-A2); assay type: cell-based; conditions: Mucor, 27782, 24 h, read-out: Voriconazole MIC
Experimental: as §1

Fusarium oxysporum 27718 = assay: MIC susceptibility testing (CLSI M38-A2); assay type: cell-based; conditions: Fusarium oxysporum, 27718, 48 h, read-out: Voriconazole MIC
Experimental: as §1

F-actin [20] = target: T1, F-actin (Oryctolagus cuniculus, UniProt P68135); set-up: Purified rabbit skeletal muscle filamentous actin (AKF99); purchased Cytoskeleton Inc. (Denver, CO) AKF99; host or cells: rabbit skeletal muscle; conditions: co-sedimentation assay, published previously (Ravichandran et al.), read-out: Kd, binding to actin; cited from earlier work
actin = target: T2, actin (Oryctolagus cuniculus, UniProt P68135); assay: Pyrene labeled actin polymerization assay; assay type: biochemical; conditions: 5 μM; approximately one hour after incubation in the polymerization buffer
T2 construct: purchased Cytoskeleton, Inc. (Denver, CO) BK003
Experimental: (§2) Actin polymerization and depolymerization assays were performed using the Actin polymerization biochem kit (#BK003; Cytoskeleton, Inc. Denver, CO) following the manufacturer's instructions with some modifications. Briefly, for the polymerization assay, G-actin stock solution was made at 0.2 mg/mL instead of 0.4 mg/mL. For the depolymerization assay, F-actin stock solution was diluted 9-fold instead of 5-fold. […] The experiments were done in duplicate.

F-actin [21] = target: T1, F-actin; assay: Pyrene labeled actin depolymerization assay; assay type: biochemical; set-up: purchased Cytoskeleton, Inc. (Denver, CO) BK003; conditions: 5 μM
Experimental: as §2

## OC(Cn1cncn1)(Cn1cncn1)c1ccc(F)cc1F [Fluconazole]
[1]
  MIC / inhibitory concentrations: ≥ 32 µg/mL
Candida krusei 9541
  MIC: 16 µg/mL (≈ 52.2 µM)
[2]
  MIC: 0.25 µg/mL (≈ 0.816 µM)
[3]
  MIC: 4 µg/mL (≈ 13.1 µM)
Candida glabrata 27243
  MIC: 64 µg/mL (≈ 209 µM)
Candida tropicalis 9624
  MIC: 0.25 µg/mL (≈ 0.816 µM)
[4]
  MIC: 0.25 µg/mL (≈ 0.816 µM)
Candida glabrata 28271
  MIC: > 64 µg/mL
[5]
  MIC: 4 µg/mL (≈ 13.1 µM)
[6]
  MIC: 0.125 µg/mL (≈ 0.408 µM)
[7]
  MIC: 2 µg/mL (≈ 6.53 µM)
Candida albicans 28102
  MIC: 0.125 µg/mL (≈ 0.408 µM)
Candida glabrata 25742
  MIC: 4 µg/mL (≈ 13.1 µM)
Candida krusei 28415
  MIC: 64 µg/mL (≈ 209 µM)
Candida tropicalis 28478
  MIC: 0.125 µg/mL (≈ 0.408 µM)
Candida tropicalis 28272
  MIC: 0.125 µg/mL (≈ 0.408 µM)
Candida albicans 23512
  MIC: 32 µg/mL (≈ 104 µM)
Candida krusei 28570
  MIC: 16 µg/mL (≈ 52.2 µM)
Candida albicans 28200
  MIC: 8 µg/mL (≈ 26.1 µM)
[8]; Trichophyton rubrum, 28658, read-out: Fluconazole MIC
  MIC: 2 µg/mL (≈ 6.53 µM)
[9]; Trichophyton mentagrophytes, 10207, read-out: Fluconazole MIC
  MIC: > 16 µg/mL
[10]; Trichophyton rubrum, 28659, read-out: Fluconazole MIC
  MIC: 2 µg/mL (≈ 6.53 µM)
[11]; Trichophyton mentagrophytes, 28556, read-out: Fluconazole MIC
  MIC: > 16 µg/mL
[12]; Trichophyton mentagrophytes, 28641, read-out: Fluconazole MIC
  MIC: 16 µg/mL (≈ 52.2 µM)
[13]; Trichophyton rubrum, 11199, read-out: Fluconazole MIC
  MIC: 0.25 µg/mL (≈ 0.816 µM)

## C[C@@H](c1ncncc1F)[C@](O)(Cn1cncn1)c1ccc(F)cc1F [Voriconazole]
Aspergillus flavus 28517
  MIC: 1 µg/mL (≈ 2.86 µM)
[8]; Trichophyton rubrum, 28658, 96 h, read-out: Voriconazole MIC
  MIC: 0.03 µg/mL (≈ 0.0859 µM)
[14]
  MIC: 16 µg/mL (≈ 45.8 µM)
[15]
  MIC: 1 µg/mL (≈ 2.86 µM)
Mucor racemosus 27784
  MIC: > 16 µg/mL
Aspergillus flavus 28455
  MIC: 2 µg/mL (≈ 5.73 µM)
Rhizopus oryzae 28403
  MIC: > 16 µg/mL
[16]
  MIC: > 16 µg/mL
Fusarium solani 28386
  MIC: > 16 µg/mL
[17]
  MIC: 1 µg/mL (≈ 2.86 µM)
[9]; Trichophyton mentagrophytes, 10207, 96 h, read-out: Voriconazole MIC
  MIC: 0.25 µg/mL (≈ 0.716 µM)
[18]
  MIC: 1 µg/mL (≈ 2.86 µM)
[10]; Trichophyton rubrum, 28659, 96 h, read-out: Voriconazole MIC
  MIC: 0.03 µg/mL (≈ 0.0859 µM)
[11]; Trichophyton mentagrophytes, 28556, 96 h, read-out: Voriconazole MIC
  MIC: 0.06 µg/mL (≈ 0.172 µM)
[19]
  MIC: > 16 µg/mL
Fusarium solani 18749
  MIC: > 16 µg/mL
Aspergillus flavus 28445
  MIC: 2 µg/mL (≈ 5.73 µM)
Mucor fragdis 27782
  MIC: > 16 µg/mL
[12]; Trichophyton mentagrophytes, 28641, 96 h, read-out: Voriconazole MIC
  MIC: 0.06 µg/mL (≈ 0.172 µM)
[13]; Trichophyton rubrum, 11199, 96 h, read-out: Voriconazole MIC
  MIC: 0.008 µg/mL (≈ 0.0229 µM)
Fusarium oxysporum 27718
  MIC: > 16 µg/mL

## phalloidin
F-actin [20]
  Kd: ~8 nM and 8 nM
actin
  pyrene fluorescence reading, plateau in polymerization buffer: around 19,000 AU
F-actin [21]
  effect on polymerization or depolymerization of actin: completely blocked the depolymerization of F-actin
F-actin [21]; no drug control at 2,500 AU
  pyrene fluorescent reading following incubation in depolymerization buffer: above 5,000 AU
